In the first test the target is T1, Recombinant human GSK3β (Homo sapiens, UniProt P49841).
T1 construct: His-tag; made in house; host or cells: Sf9 insect cells / baculovirus
T1 sequence (P49841 whole entry): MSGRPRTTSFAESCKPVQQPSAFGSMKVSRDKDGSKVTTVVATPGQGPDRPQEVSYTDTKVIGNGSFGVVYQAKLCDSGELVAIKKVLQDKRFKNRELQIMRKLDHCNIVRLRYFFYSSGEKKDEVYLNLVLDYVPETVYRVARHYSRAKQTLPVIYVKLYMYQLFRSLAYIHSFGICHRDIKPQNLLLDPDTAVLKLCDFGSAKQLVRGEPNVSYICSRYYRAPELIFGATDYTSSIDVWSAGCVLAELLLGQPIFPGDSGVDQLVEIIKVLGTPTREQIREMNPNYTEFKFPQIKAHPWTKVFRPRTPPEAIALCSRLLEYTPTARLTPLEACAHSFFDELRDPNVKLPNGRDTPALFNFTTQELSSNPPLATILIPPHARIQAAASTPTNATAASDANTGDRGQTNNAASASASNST
Briefly: GSK-3β (Glycogen Synthase Kinase) cell free enzyme assay. It counts as biochemical. Particulars: 1 μM; Examples 157-199; read-out: Percent inhibition at 1 μM. An outline of the steps:
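This cell-free kinase assay measured [33P] transfer from [33P]ATP gamma phosphate into the biotinylated peptide bio-LC-S-R-H-S-S-P-H-Q-pS-E-D-E-E-E-OH. After 60 min at RT, reactions were stopped with 0.66 volume of PBS lacking Ca or Mg containing 12.5 mM EDTA, 0.25% Triton-X 100, 125 uM ATP and 6.2 mg/ml streptavidin SPA beads. Bead-bound radioactivity was counted as CPM on a Trilux scintillation counter.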
With `Cn1c(NC[C@H]2CCCN2S(C)(=O)=O)nc(-c2ccncc2)cc1=O` [Example 168, 3-Methyl-2-({[(2R)-1-(methylsulfonyl)pyrrolidin-2-yl]methyl}amino)-6-pyridin-4-ylpyrimidin-4(3H)-one], the inhibition – broadly, the drop in the measured response relative to a control, in per cent – at 1 µM was found to be 78%.
The same measure, in the same setting: with `CCN(c1nc(-c2ccncc2)cc(=O)n1C)C1CCCN(S(=O)(=O)c2ccccc2)C1` (centres unmarked) [Example 185, 2-{Ethyl[1-(phenylsulfonyl)piperidin-3-yl]amino}-3-methyl-6-pyridin-4-ylpyrimidin-4(3H)-one] the figure was 101%; with `CN(c1nc(-c2ccncc2)cc(=O)n1C)C1CCN(S(C)(=O)=O)C1` (centres unmarked) [Example 160, 3-Methyl-2-(methyl[1-(methylsulfonyl)pyrrolidin-3-yl]amino}-6-pyridin-4-ylpyrimidin-4(3H)-one], 79%; with `Cn1c(NC2CCCN(S(=O)(=O)Cc3ccccc3)CC2)nc(-c2ccncc2)cc1=O` (centres unmarked) [Example 192, 2-{[1-(Benzylsulfonyl)azepan-4-yl]amino}-3-methyl-6-pyridin-4-ylpyrimidin-4(3H)-one], 81%.

The same test, now with this note: 1 μM; Examples 201-221; read-out: Percent inhibition at 1 μM.
Take `COC(=O)N1CCCC(Nc2nc(-c3ccncc3)cc(=O)n2C)CC1` (centres unmarked) [Example 205, Methyl 4-[(1-methyl-6-oxo-4-pyridin-4-yl-16-dihydropyrimidin-2-yl)amino]azepane-1-carboxylate]: the inhibition at 1 µM came to 86%.
For `COC(=O)N1CCC(CNc2nc(-c3ccncc3)cc(=O)n2C)C1` (centres unmarked) [Example 221, Methyl 3-{[(1-methyl-6-oxo-4-pyridin-4-yl-16-dihydropyrimidin-2-yl)amino]methyl}pyrrolidine-1-carboxylate], the inhibition at 1 µM was 71%.
On the same count and under the same terms, with `CCN(c1nc(-c2ccncc2)cc(=O)n1C)C1CCCN(C(=O)OC)CC1` (centres unmarked) [Example 215, Methyl 4-[ethyl(1-methyl-6-oxo-4-pyridin-4-yl-16-dihydropyrimidin-2-yl)amino]azepane-1-carboxylate] the figure was 93%.

Still in this test, the particulars now being: 1 μM; Examples 236-262; read-out: Percent inhibition at 1 μM.
On to `CN1C[C@H](Nc2nc(-c3ccncc3)cc(=O)n2C)[C@@H](F)C1` [Example 242, 2-{[(3S,4S)-4-Fluoro-1-methylpyrrolidin-3-yl]amino}-3-methyl-6-pyridin-4-ylpyrimidin-4(3H)-one], for which the inhibition at 1 µM turned out to be 43%.
Still for that read-out and setting: with `CN(c1nc(-c2ccncc2)cc(=O)n1C)C1CCN(Cc2ccccc2)C1` (centres unmarked) [Example 256, 2-[(1-Benzylpyrrolidin-3-yl)(methyl)amino]-3-methyl-6-pyridin-4-ylpyrimidin-4(3H)-one] the figure was 83%.

The test is the same for the next values; noted with them: cell free enzyme assay; Examples 1-35.
As for `Cn1c(NC[C@H]2CCCN2C(=O)OC(C)(C)C)nc(-c2ccncc2)cc1=O` [Example 32, tert-butyl (2R)-2-{[(1-Methyl-6-oxo-4-pyridin-4-yl-1,6-dihydropyrimidin-2-yl)amino]methyl} pyrrolidine-1-carboxylate], the IC50 (as a rule, the concentration at which inhibition is half-maximal) is 71 nM.
As for `COc1cccc2c1CC[C@@H](Nc1nc(-c3ccncc3)cc(=O)n1C)[C@H]2C` [Example 28, 2-{[(1S,2R)-5-Methoxy-1-methyl-1,2,3,4-tetrahydronaphthalen-2-yl]amino}-3-methyl-6-pyridin-4-ylpyrimidin-4(3H)-one], the IC50 was 3.9 nM.

The same test, now with this note: cell free enzyme assay; Examples 62-155.
Consider `CCCC(C)C(=O)N1C[C@@H]2[C@H](C1)[C@H]2N(C)c1nc(-c2ccncc2F)cc(=O)n1C` (stereo partly drawn) [Example 100, 6-(3-Fluoropyridin-4-yl)-3-methyl-2-{methyl[(1R,5S,6s)-3-(2-methylpentanoyl)-3-azabicyclo[3.1.0]hex-6-yl]amino}pyrimidin-4(3H)-one], for which the IC50 was found to be 9.02 nM.
Same read-out and setting: with `CN(c1nc(-c2ccncc2F)cc(=O)n1C)[C@H]1[C@@H]2CN(C(=O)C3CCC3)C[C@@H]21` [Example 107, 2-{[(1R,5S,6s)-3-(Cyclobutylcarbonyl)-3-azabicyclo[3.1.0]hex-6-yl](methyl)amino}-6-(3-fluoropyridin-4-yl)-3-methylpyrimidin-4(3H)-one] the figure was 18.4 nM; with `Cc1ccc(C(=O)N2C[C@@H]3[C@H](C2)[C@H]3N(C)c2nc(-c3ccncc3F)cc(=O)n2C)cc1` [Example 142, 6-(3-Fluoropyridin-4-yl)-3-methyl-2-{methyl[(1R,5S,6s)-3-(4-methylbenzoyl)-3-azabicyclo[3.1.0]hex-6-yl]amino}pyrimidin-4(3H)-one], 3.51 nM; with `Cc1ccc(C(=O)N2C[C@@H]3[C@H](C2)[C@H]3N(C)c2nc(-c3ccncc3F)cc(=O)n2C)cc1F` [Example 133, 2-{[(1R,5S,6s)-3-(3-Fluoro-4-methylbenzoyl)-3-azabicyclo[3.1.0]hex-6-yl](methyl)amino}-6-(3-fluoropyridin-4-yl)-3-methylpyrimidin-4(3H)-one], 2.91 nM.
For `COc1ccc(C(=O)N2C[C@@H]3[C@H](C2)[C@H]3N(C)c2nc(-c3ccncc3F)cc(=O)n2C)c(OC)c1` [Example 151, 2-{[(1R,5S,6s)-3-(2,4-Dimethoxybenzoyl)-3-azabicyclo[3.1.0]hex-6-yl](methyl)amino}-6-(3-fluoropyridin-4-yl)-3-methylpyrimidin-4(3H)-one], the IC50 came out at 1.22 nM.
Same read-out and setting: with `COc1ccccc1C(=O)N1C[C@@H]2[C@H](C1)[C@H]2N(C)c1nc(-c2ccncc2F)cc(=O)n1C` [Example 106, 6-(3-Fluoropyridin-4-yl)-2-{[(1R,5S,6s)-3-(2-methoxybenzoyl)-3-azabicyclo[3.1.0]hex-6-yl](methyl)amino}-3-methylpyrimidin-4(3H)-one] the figure was 0.91 nM; with `Cn1c(NC[C@H]2CCCN2C(=O)c2ccccc2)nc(-c2ccncc2)cc1=O` [Example 78, 2-({[(2R)-1-Benzoylpyrrolidin-2-yl]methyl}amino)-3-methyl-6-pyridin-4-ylpyrimidin-4(3H)-one], 277 nM.
Still for that read-out and setting: to `COC(=O)CCC(=O)N1C[C@@H]2[C@H](C1)[C@H]2N(C)c1nc(-c2ccncc2F)cc(=O)n1C` [Example 129, Methyl 4-[(1R,5S,6s)-6-{[4-(3-fluoropyridin-4-yl)-1-methyl-6-oxo-1,6-dihydropyrimidin-2-yl](methyl)amino}-3-azabicyclo[3.1.0]hex-3-yl]-4-oxobutanoate] belongs 84.4 nM; to `Cn1c(N[C@@H]2CN(C(=O)Cc3ccccc3)C[C@@H]2F)nc(-c2ccncc2)cc1=O` [Example 87, 2-{[(3R,4S)-4-Fluoro-1-(phenylacetyl)pyrrolidin-3-yl]amino}-3-methyl-6-pyridin-4-ylpyrimidin-4(3H)-one], 285 nM; to `CN(c1nc(-c2ccncc2)cc(=O)n1C)C1CCCN(C(=O)c2ccccc2)CC1` (centres unmarked) [Example 72, 2-[(1-Benzoylazepan-4-yl)(methyl)amino]-3-methyl-6-pyridin-4-ylpyrimidin-4(3H)-one], 61.5 nM.
Same read-out and setting: with `Cc1cc(C(=O)N2C[C@@H]3[C@H](C2)[C@H]3N(C)c2nc(-c3ccncc3F)cc(=O)n2C)cc(Cl)n1` [Example 104, 2-{[(1R,5S,6s)-3-(2-Chloro-6-methylisonicotinoyl)-3-azabicyclo[3.1.0]hex-6-yl](methyl)amino}-6-(3-fluoropyridin-4-yl)-3-methylpyrimidin-4(3H)-one] the figure was 16.1 nM; with `CN(c1nc(-c2ccncc2F)cc(=O)n1C)[C@H]1[C@@H]2CN(C(=O)c3cc(F)cc(F)c3)C[C@@H]21` [Example 144, 2-{[(1R,5S,6s)-3-(3,5-Difluorobenzoyl)-3-azabicyclo[3.1.0]hex-6-yl](methyl)amino}-6-(3-fluoropyridin-4-yl)-3-methylpyrimidin-4(3H)-one], 4.09 nM.
For the compound `CN(c1nc(-c2ccncc2F)cc(=O)n1C)[C@H]1[C@@H]2CN(C(=O)c3ccccc3C(F)(F)F)C[C@@H]21` [Example 98, 6-(3-Fluoropyridin-4-yl)-3-methyl-2-(methyl{(1R,5S,6s)-3-[2-(trifluoromethyl)benzoyl]-3-azabicyclo[3.1.0]hex-6-yl}amino)pyrimidin-4(3H)-one], the IC50 was found to be 4.39 nM.
Take `COc1cccc(C(=O)N2C[C@@H]3[C@H](C2)[C@H]3N(C)c2nc(-c3ccncc3F)cc(=O)n2C)c1` [Example 99, 6-(3-Fluoropyridin-4-yl)-2-{[(1R,5S,6s)-3-(3-methoxybenzoyl)-3-azabicyclo[3.1.0]hex-6-yl](methyl)amino}-3-methylpyrimidin-4(3H)-one]: the IC50 came to 1.46 nM.

Still in this test, the particulars now being: cell free enzyme assay; Examples 265-291.
Regarding `CN(c1nc(-c2ccncc2F)cc(=O)n1C)[C@H]1[C@@H]2CN(c3nc4ccc(F)cc4n3C)C[C@@H]21` [Example 269, 2-{[(1R,5S,6s)-3-(6-Fluoro-1-methyl-1H-benzimidazol-2-yl)-3-azabicyclo[3.1.0]hex-6-yl](methyl)amino}-6-(3-fluoropyridin-4-yl)-3-methylpyrimidin-4(3H)-one], the IC50 is 18.8 nM.
As to `CN(c1nc(-c2ccncc2F)cc(=O)n1C)[C@H]1[C@@H]2CN(c3nc4ccccc4s3)C[C@@H]21` [Example 283, 2-{[(1R,5S,6s)-3-(1,3-Benzothiazol-2-yl)-3-azabicyclo[3.1.0]hex-6-yl](methyl)amino}-6-(3-fluoropyridin-4-yl)-3-methylpyrimidin-4(3H)-one], the half-inhibitory concentration (IC50) turned out to be 55.7 nM.
Still for that read-out and setting: to `CN(c1nc(-c2ccncc2F)cc(=O)n1C)[C@H]1[C@@H]2CN(c3nnnn3-c3ccccc3F)C[C@@H]21` [Example 275, 2-[{(1R,5S,6s)-3-[1-(2-Fluorophenyl)-1H-tetrazol-5-yl]-3-azabicyclo[3.1.0]hex-6-yl}(methyl)amino]-6-(3-fluoropyridin-4-yl)-3-methylpyrimidin-4(3H)-one] belongs 1.12 nM.
Same read-out and setting: with `CCOCCn1nnnc1N1C[C@@H]2[C@H](C1)[C@H]2N(C)c1nc(-c2ccncc2F)cc(=O)n1C` [Example 273, 2-[{(1R,5S,6s)-3-[1-(2-Ethoxyethyl)-1H-tetrazol-5-yl]-3-azabicyclo[3.1.0]hex-6-yl}(methyl)amino]-6-(3-fluoropyridin-4-yl)-3-methylpyrimidin-4(3H)-one] the figure was 29 nM.
